Data: PubChem BioAssay (NCI)
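Each compound was tested at five concentrations against cells in 96-well plates for 48 hours. TGI marks complete inhibition of growth.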

Columns and labels:
Assay in all cases: DTP human tumour cell line panel, 48 h
SNB-75 CNS = system: SNB-75 CNS
786-0 renal = system: 786-0 renal
ACHN renal = system: ACHN renal
KM12 colon = system: KM12 colon
SN12C renal = system: SN12C renal
M14 melanoma = system: M14 melanoma
HOP-92 NSCLC = system: HOP-92 NSCLC
SK-MEL-5 melanoma = system: SK-MEL-5 melanoma
OVCAR-5 ovarian = system: OVCAR-5 ovarian
LOX IMVI melanoma = system: LOX IMVI melanoma
SNB-19 CNS = system: SNB-19 CNS
TK-10 renal = system: TK-10 renal
MDA-MB-231 breast = system: MDA-MB-231 breast
NCI/ADR-RES ovarian = system: NCI/ADR-RES ovarian
U251 CNS = system: U251 CNS
MALME-3M melanoma = system: MALME-3M melanoma
OVCAR-3 ovarian = system: OVCAR-3 ovarian
T-47D breast = system: T-47D breast
NCI-H522 lung = system: NCI-H522 lung
MOLT-4 leukemia = system: MOLT-4 leukemia
CAKI-1 renal = system: CAKI-1 renal
RXF 393 renal = system: RXF 393 renal
HCT-116 colon = system: HCT-116 colon
UACC-257 melanoma = system: UACC-257 melanoma
UO-31 renal = system: UO-31 renal
SF-539 CNS = system: SF-539 CNS
SF-268 CNS = system: SF-268 CNS
EKVX NSCLC = system: EKVX NSCLC
A549 NSCLC = system: A549 NSCLC
OVCAR-4 ovarian = system: OVCAR-4 ovarian
HCC-2998 colon = system: HCC-2998 colon
SW-620 colon = system: SW-620 colon
CCRF-CEM leukemia = system: CCRF-CEM leukemia
PC-3 prostate = system: PC-3 prostate
RPMI-8226 leukemia = system: RPMI-8226 leukemia
NCI-H226 lung = system: NCI-H226 lung
NCI-H460 lung = system: NCI-H460 lung
HT29 colon = system: HT29 colon
A498 renal = system: A498 renal
DU-145 prostate = system: DU-145 prostate
MDA-MB-435 = system: MDA-MB-435
SK-MEL-28 melanoma = system: SK-MEL-28 melanoma
SR leukemia = system: SR leukemia
OVCAR-8 ovarian = system: OVCAR-8 ovarian
MDA-N = system: MDA-N
NCI-H23 lung = system: NCI-H23 lung
SF-295 CNS = system: SF-295 CNS
MCF7 breast = system: MCF7 breast
HS 578T breast = system: HS 578T breast
K-562 leukemia = system: K-562 leukemia
COLO 205 colon = system: COLO 205 colon
HCT-15 colon = system: HCT-15 colon
HL-60(TB) leukemia = system: HL-60(TB) leukemia
HOP-62 NSCLC = system: HOP-62 NSCLC
IGROV1 ovarian = system: IGROV1 ovarian

Measured: TGI

CO[C@@H]1C[C@H]2[C@@H]3CC[C@H]([C@H](C)COC(C)=O)[C@@]3(C)CC[C@@H]2[C@@]2(C)CC[C@H]3C[C@]312
> 100 µM: all assays above
